# In patent US5219855A, “Anxiolytic drug” (Mitsubishi Kasei Corporation, priority 1988, dated 1993):
# Where a name gives a salt, the structure may show the parent alone.
# Biological target: T1, 5-HT1A receptor (Rattus norvegicus, UniProt P19327)
# T1 construct: a rat brain was homogenized in Tris buffer and centrifuged; from tissue; host or cells: rat brain membrane preparation
# T1 sequence (P19327 1-422): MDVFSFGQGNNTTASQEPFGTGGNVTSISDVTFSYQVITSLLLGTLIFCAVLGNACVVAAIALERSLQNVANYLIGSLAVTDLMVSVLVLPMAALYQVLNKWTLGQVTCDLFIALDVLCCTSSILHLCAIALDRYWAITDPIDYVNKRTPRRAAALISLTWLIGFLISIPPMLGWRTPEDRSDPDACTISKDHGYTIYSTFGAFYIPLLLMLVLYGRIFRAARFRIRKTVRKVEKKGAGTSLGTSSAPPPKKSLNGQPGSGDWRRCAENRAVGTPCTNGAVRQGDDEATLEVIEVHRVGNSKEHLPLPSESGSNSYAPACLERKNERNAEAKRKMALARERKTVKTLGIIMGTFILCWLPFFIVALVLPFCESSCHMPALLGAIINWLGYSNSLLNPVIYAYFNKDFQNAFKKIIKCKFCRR
# Assay: binding assay using [3H]8-OH-DPAT, rat brain membrane preparation
# Method: To say more exactly, a rat brain was homogenized in Tris buffer and centrifuged. The resultant sediment was rehomogenized using Tris buffer and incubated at 37° C. for 10 minutes, followed by centrifugation. The resulting deposit was homogenized in Tris buffer containing pargyline, calcium chloride and ascorbic acid and subjected to binding assay (membrane preparation).
# The assay was carried out by combining the membrane preparation with [3H]8-OH-DPAT and the test compound and then incubating at 37° C. for 10 minutes.
# Subsequently, the mixture was immediately filtered through a Whatman GF/B filter and the radio-activity remaining on the filter was measured by liquid chromatography.
# The binding capacity of the test compound to 5-HT1A receptor was expressed as Ki value calculated by the formula: [formula] wherein [L] denotes the concentration of [3H]8-OH-DPAT, kd represents the dissociation constant, and IC50 represents the concentration of the test compound required to produce a 50% inhibition of [3H]8-OH-DPAT binding.
row,Compound,Ki [nM]
1,FC(F)(F)c1cccc(N2CCN(CCCOc3ccc4c(c3)OCO4)CC2)c1 [No. 13],8
2,c1ccc(N2CCN(CCCCOc3ccc4c(c3)OCCO4)CC2)cc1 [No. 19],16
3,O=C(CCN1CCN(c2ccccc2)CC1)Nc1ccc2c(c1)OCO2 [No. 10],25.4
4,"O=C1c2ccccc2S(=O)(=O)N1CCCCN1CCN(c2ncccn2)CC1 [Ipsapirone, 2-(4-(4-(2-pyrimidinyl)-1-piperazinyl)butyl)-1,2-benzisothiazol-3-(2H)one-1,1-dioxydehydrochloride, reference compound]",2.2
5,c1ccc(N2CCN(CCCOc3ccc4c(c3)OCO4)CC2)nc1 [No. 2],2.4
6,FC(F)(F)c1cccc(N2CCN(CCCCOc3ccc4c(c3)OCO4)CC2)c1 [No. 6],55.9
7,c1ccc(N2CCN(CCCCOc3ccc4c(c3)OCO4)CC2)cc1 [No. 4],10.1
8,COc1ccc(OCCCN2CCN(c3ccccc3OC)CC2)cc1OC [No. 8],14.3
9,Fc1ccc(N2CCN(CCCCOc3ccc4c(c3)OCO4)CC2)cc1 [No. 5],33.2
10,Cc1ccccc1N1CCN(CCCOc2ccc3c(c2)OCO3)CC1 [No. 14],101
11,[O-][S+](CCCN1CCN(c2ccccc2)CC1)c1ccc2c(c1)OCCCO2 (stereo not shown) [No. 22],25.4
12,c1ccc(N2CCN(CCCOc3ccc4c(c3)OCCO4)CC2)cc1 [No. 15],5.7
13,O=C(CCCN1CCN(c2ccccc2)CC1)c1ccc2c(c1)OCO2 [No. 17],5.7
14,c1ccc(N2CCN(CCCOc3ccc4c(c3)OCO4)CC2)cc1 [No. 1],4.7
15,COc1cc(OCCCN2CCN(c3ccccc3)CC2)cc(OC)c1OC [No. 7],5.7
16,OC(CCCN1CCN(c2ccccc2)CC1)c1ccc2c(c1)OCO2 (stereo not shown) [No. 18],8
17,O=C(CCCCN1CCN(c2ccccc2)CC1)c1ccc2c(c1)OCO2 [No. 20],10.1
18,c1cnc(N2CCN(CCCOc3ccc4c(c3)OCO4)CC2)nc1 [No. 3],10.1
19,c1ccc(N2CCN(CCCSc3ccc4c(c3)OCCO4)CC2)cc1 [No. 21],71.2
20,Fc1ccc(N2CCN(CCCOc3ccc4c(c3)OCO4)CC2)cc1 [No. 12],16
21,c1ccc(N2CCN(CCCNc3ccc4c(c3)OCO4)CC2)cc1 [No. 11],18
22,c1ccc(N2CCN(CCOc3ccc4c(c3)OCO4)CC2)cc1 [No. 16],127
